From publication PMC10626537, “Pharmacokinetic and pharmacodynamic studies of nicotine in rat brain: a simultaneous investigation of nicotine metabolites and the release of neurotransmitters in vivo” (Frontiers in Chemistry, 2023) come the findings set out here.

The subject of series [1] is release of neurotransmitters in the NAc. The experiment in a line: Microdialysis release of neurotransmitters in rat NAc after Nic exposure under regulation of Nic metabolism. As to conditions: for peak concentration of DOPAC / peak concentration of HVA: after Nic stimulation (2 mg kg^-1 ip). The series is classed as in vivo. The protocol: (§1) To inhibit the main Nic metabolic enzyme CYP2B in the brain, rats received intraperitoneal injections of proadifen (50 mg kg^−1·day^−1, 4 d) ([Song et al., 2012]). Control animals were pretreated with saline using the same protocol. All the rats were sacrificed by cardiac perfusion after microdialysis sampling. The brain tissues were separated and divided into four parts (cerebrum, cerebellum, diencephalon, and brainstem). The CYP2B activity in different rat brain regions was determined following the instructions of the GENMED CYP2B1 activity fluorescence quantitative detection kit (GENMED SCIENTIFICS INC. U.S.A, GMS18019.1).
(§2) The mass spectrometer was operated in positive ionization mode. […] The normalized collision energy was set at 10%.

Series [2] deals with monoamine neurotransmitters in rat striatum. As to conditions: rat striatum dialysate; after 3 h of Nic exposure (2 mg kg^-1 ip).
Source text: Anesthesia was induced with 3% isoflurane in an induction chamber before surgical procedures and was placed in a stereotaxic frame equipped with a rat ear and bite bar. Rat was maintained under anesthesia with 1%–2% isoflurane during operation procedures. And the cranium above the ventral striatum (coordinates relative to bregma: anterior/posterior (AP), +1.2 mm; medial/lateral (ML), −2.4 mm; dorsal/ventral (DV), −6.0 mm) or NAc (coordinates relative to bregma: anterior/posterior (AP), +1.7 mm; medial/lateral (ML), −1.5 mm; dorsal/ventral (DV), −6.5 mm) was exposed to implant the probe guide-cannula (CMA/12), two screws were implanted into the skull to serve as an anchor and dental cement was used as an adhesive to fixed the probe guide-cannula. To avoid the interference of neurotransmitter changes due to physical stimulation of pain receptors during intraperitoneal injection of Nic, Nic was injected with the aid of an administration catheter (Instech, BTPU-040, 6.35 × 10.16 mm, America), which was implanted in the abdomen, the other end of the catheter was passed under the skin and sent to the back and sealed with a plug (Instech, PNP3M-F22R, America). The rats were housed individually and allowed to recover from surgery for at least 24 h.
For in vivo microdialysis sampling, the probe (CMA/12 Elite, membrane parameters: polyarylethersulfone material; 2 mm length; φ 0.5 mm; 20 kDa cut-off) was inserted into the brain through the cannula. After implantation, the probe was perfused with Ringer’s solution by the syringe pump (CMA/402, piston propulsion speed: 2.4 μm·min^-1–1.2 mm min^-1; velocity range: 0.1 μL·min^-1–20 μL min^-1; precision: −1.5%-1.5%) at fixed flow rates (1.5 μL min^-1), and the dialysates were analyzed under the optimized UHPLC-HRMS/MS condition directly. Intraperitoneal administration of 2 mg kg^-1 Nic was performed until stable levels of neurotransmitters were obtained, which was defined as the mean value of neurotransmitter concentrations in six consecutive samples varied by no more than 10%.
UHPLC-HRMS/MS system was performed on Dionex Ultimate 3000 UHPLC equipped with a Q-Exactive mass spectrometer and electrospray ionization (ESI) interface (Thermo Fisher Scientific, Germany). Chromatographic separation was achieved by the pentafluorophenyl phase column (Discovery® HS F5-3 column, 2.1 × 150 mm, 3 μm) with linear binary gradient elution, at a flow rate of 0.5 mL min^-1. Eluent A was 10 mM ammonium acetate with FA (0.1%, v/v) dissolved in water, and eluent B was acetonitrile with 0.1% FA (v/v). […] From 3 to 6 min, a linear gradient was applied from 45% to 75% B and then return linearly to the initial condition at 9 min and the column was allowed to equilibrate for 1 min.
The mass spectrometer was operated in positive ionization mode. The optimized mass spectrometer parameters were as follows: a resolution of 35000; automatic gain control (AGC) target was 2.0 e^5; maximum injection time (IT) was 100 m; 3.5 kV for spray voltage; ion transfer tube temperature, 350°C; S-Lens RF level, 60%. The isolation window of the precursor ions was done using a quadrupole with an isolation window of m/z 1. The normalized collision energy was set at 10%. Analytes were determined by a parallel reaction monitoring (PRM) method by acquiring two transitions for each compound. The most specific transition was selected for the quantitative purpose. All data were gathered and analyzed using Xcalibur 2.2 software (Thermo Fisher Scientific, Germany). […]
The nature of series [3]: Online brain microdialysis UHPLC-HRMS/MS pharmacokinetics of Nic and its main metabolites in rat NAc after single Nic injection. The series is classed as in vivo. Further details: AUC0–360 min: unit not given here. The note with it: for Cmax / MRT / Tmax / half-life: rat, brain microdialysate (NAc), ip; for half-life: read-out: t 1/2z. The procedure:
as §1, §2

The target of series [4] is T1, CYP2B1 (Rattus norvegicus, UniProt P00176).
T1 construct: The brain tissues were separated and divided into four parts (cerebrum, cerebellum, diencephalon, and brainstem); from tissue; host or cells: brain tissue (cerebrum, cerebellum, diencephalon, brainstem) of male Sprague Dawley rats
T1 sequence (P00176 1-491): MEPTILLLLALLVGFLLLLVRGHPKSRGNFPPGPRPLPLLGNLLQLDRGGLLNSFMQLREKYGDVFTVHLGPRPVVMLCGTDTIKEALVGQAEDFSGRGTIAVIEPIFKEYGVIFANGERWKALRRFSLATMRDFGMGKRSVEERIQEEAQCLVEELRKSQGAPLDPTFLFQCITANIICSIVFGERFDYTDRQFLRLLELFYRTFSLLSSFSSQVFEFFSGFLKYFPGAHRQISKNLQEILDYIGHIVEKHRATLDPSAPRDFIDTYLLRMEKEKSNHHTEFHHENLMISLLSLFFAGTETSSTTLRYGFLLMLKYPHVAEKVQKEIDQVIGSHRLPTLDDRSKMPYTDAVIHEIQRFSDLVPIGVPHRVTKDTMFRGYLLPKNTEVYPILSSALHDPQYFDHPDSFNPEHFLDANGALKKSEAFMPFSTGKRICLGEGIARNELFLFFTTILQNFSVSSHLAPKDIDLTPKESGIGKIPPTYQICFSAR
The experiment in a line: CYP2B1 activity in rat brain tissue after proadifen pretreatment (GENMED CYP2B1 activity fluorescence quantitative detection kit). The series is classed as in vivo. As to conditions: 4 days. The protocol: as §1

[5] abbreviates: after Nic exposure, proadifen pretreatment group.
[6] abbreviates: rat NAc, Nic 2 mg kg^-1 ip, Prodifine (proadifen) pretreated.
[7] abbreviates: rat NAc, Nic 2 mg kg^-1 ip, saline-pretreated.
Setting [8] is: 2 mg/kg, rat NAc, Nic 2 mg kg^-1 ip, Prodifine (proadifen) pretreated.
Where [9] appears, read: 2 mg/kg, rat NAc, Nic 2 mg kg^-1 ip, saline-pretreated.
Where [10] appears, read: Nic 2 mg kg^-1 ip, proadifen vs saline pretreatment.

Read-outs that look alike come from different tables or passages of the source.

As for `CN1CCC[C@H]1c1cccnc1` [Nic, (−) nicotine], in series [1] (setting [5]), the “C max of 5-HIAA” value was ~240 % of baseline and the “C max of 5-HT” value is reported as ~390 % of baseline. The “peak level of Ach relative to baseline” value in series [1] (after Nic injection) is listed as “almost doubled”. Also, in series [1] (proadifen pretreated group), the “peak concentration of DOPAC” value is ~340 % of the baseline and the “peak concentration of HVA” value is given as ~330 % of the baseline. Besides, in series [1] (saline group), the “peak concentration of DOPAC” value is on record as ~290 % of the baseline and the “peak concentration of HVA” value is listed as ~270 % of the baseline. Moreover, in series [2], the “average level of 5-HIAA” value was found to be 234.4 µg/L, the “average level of 5-HT” value came to 45.9 µg/L, the “average level of DA” value was determined as 25.1 µg/L and the “average level of DOPAC” value worked out at 99.2 µg/L. The “average level of HVA” value in series [2] came out at 169.8 µg/L. In addition, in series [3] (Nic 2 mg kg^-1 ip), the “time by which Nic was almost completely cleared from the rat brain” value is no more than 360 min. In addition, in series [3] (setting [6]), the CL/F (in general, clearance divided by bioavailability, as obtained after extravascular dosing) is 14.0 mL/min. In addition, the CL/F in series [3] (setting [7]) is 25.0 mL/min. Also, the “brain C max of Nic in proadifen group relative to saline group” value in series [3] (rat brain, Nic 2 mg kg^-1 ip, proadifen-pretreated vs saline) is recorded as 1.26 times. Further, the Cmax (commonly the highest concentration seen after dosing) in series [3] (2 mg kg^-1, rat NAc, Nic 2 mg kg^-1 ip, Prodifine (proadifen) pretreated) is 1220 ng/mL. Also, in series [3] (setting [8]), the Cmax stood at 1220 ng/mL; the MRT (usually a mean duration of stay, worked out from the concentration-time curve) is 1.89 h; the Tmax – broadly, the time from dosing to the highest level – is 0.5 h; the half-life amounted to 1.28 h. Moreover, in series [3] (setting [9]), the Cmax is 968 ng/mL, the MRT was 1.43 h, the Tmax is 0.5 h and the half-life was 2.15 h.

In the case of `CCCC(C(=O)OCCN(CC)CC)(c1ccccc1)c1ccccc1` [proadifen], the “effect of proadifen inhibition on Nic-induced peak level of Ach” value in series [1] (Nic 2 mg kg^-1 ip) is recorded as “did not further increased it”. For the same molecule, in series [1] (setting [10]), the “average level of GABA in proadifen group relative to saline group” value is reported as 2.7 times and the “average level of serotonin under inhibition of nicotine metabolism relative to control” value stood at 1.2 times. For the same molecule, the “decrease of whole brain CYP2B1 activity on average” value in series [4] (proadifen 50 mg kg^-1 d^-1 ip, vs saline-pretreated rats) amounted to 36.9%. Moreover, the “effect on brain CYP2B1 activity” value in series [4] (proadifen 50 mg·kg^−1·d^−1 ip) is recorded as “significant inhibition”.

On to `CN1C(=O)CC[C@H]1c1cccnc1` [Cot, (−) cotinine], for which the CL/F in series [3] (setting [6]) worked out at 7.0 mL/min. Besides, in series [3] (setting [7]), the CL/F came to 9.0 mL/min. Further, in series [3] (setting [8]), the Cmax is 20.3 ng/mL, the MRT is 3.12 h, the time to peak (Tmax) is 2 h and the half-life was 2.19 h. Also, in series [3] (setting [9]), the Cmax came to 16.7 ng/mL, the MRT was 3.11 h, the Tmax was 2.67 h and the half-life is 1.74 h.

In the case of `C[N@+]1([O-])CCC[C@H]1c1cccnc1` [NNO, (1′S, 2′S)-nicotine-1′-oxide], the “AUC0–360 min” value in series [3] (rat NAc dialysate, Nic 2 mg kg^-1 ip single injection, Prodifine (proadifen 50 mg kg^-1 d^-1 ip, 4 days) pretreated, two-compartmental model) came out at 0.6. Further, in series [3] (setting [6]), the CL/F was 3.2 mL/min. In addition, the CL/F in series [3] (setting [7]) turned out to be 5.0 mL/min. In addition, the “decrease of C max (level) of Nic metabolite after CYP2B1 inhibition compared with control rats” value in series [3] (rat brain, Nic 2 mg kg^-1 ip, proadifen-pretreated vs saline control) came out at 65.6%. For the same molecule, in series [3] (setting [8]), the Cmax was found to be 5.2 ng/mL, the MRT is 1.57 h, the Tmax was 0.667 h and the half-life amounted to 0.895 h. In series [3] (setting [9]), the Cmax is 15.1 ng/mL, the MRT is 2.39 h, the Tmax was 0.5 h and the half-life was 0.802 h.
